Laboratory results published in patent US6713477B1, “Hydroxamic acid derivatives” (Sumitomo Pharmaceuticals Company, Limited, priority 2000, dated 2004).

Legend:
[1] = molecular target: T1, MMP-3 (Matrix Metalloproteinase-3, Stromelysin-1) (Homo sapiens, UniProt P08254); assay: Inhibition assay against MMP-3 (fluorescent MCA-labeled substrate); type: biochemical; settings: Table 10; active MMP at 20 nM, 37° C., 1.5 hours; read-out: IC50 MMP3
T1 construct: C-terminal truncated form of human prostromelysin cDNA; made in house; host or cells: E. coli
T1 sequence (P08254 100-272 limits assumed): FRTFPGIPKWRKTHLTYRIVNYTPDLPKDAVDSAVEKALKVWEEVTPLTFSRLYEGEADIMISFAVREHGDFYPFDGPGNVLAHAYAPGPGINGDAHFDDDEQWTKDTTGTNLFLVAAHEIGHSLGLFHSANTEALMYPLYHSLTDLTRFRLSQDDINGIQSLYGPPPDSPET
Procedure: C-terminal truncated form of human prostromelysin cDNA (proMMP-3, cDNA sequence in Nature, 348, 699-704 (1990)) was subcloned, expressed in E.coli and purified as described previously (Biochemistry 30, 6476-6483 (1991)). Activation of proMMP-3 was achieved by treatment with 1 mM 4-aminophenylmercuric acetate at 37° C. for 60 min.
(§1) Enzymatic assays were performed in accordance with C. G. Knight's method (FEBS Lett., 296(3), 263-266 (1992)). The fluorescent MCA-labeled substrate, (7-methoxycumaline-4-yl)-Pro-Leu-Gly-Leu-L-[N-(2,4-dinitrophenyl)-L-2,3-diaminopropionyl]-Ala-Arg-NH2 (Peptide Institute. Inc.) was used for measuring the kinetics of inhibition for each tested compound.
(§2) The substrate was incubated at 37° C. for 1.5 hours (MMP-1; for 24 hours) with active MMP (at 20 nM, except MMP-13 at 5 nM) and a test compound in assay buffer containing 100 mM Tris-HCl (pH7.5), 10 mM CaCl2, 100 MM NaCl and 0.05% Brij-35.

[2] = molecular target: T2, MMP-13 (Matrix Metalloproteinase-13, Collagenase-3) (Homo sapiens, UniProt P45452); assay: Inhibition assay against MMP-13 (fluorescent MCA-labeled substrate); type: biochemical; settings: Table 10; active MMP-13 at 5 nM, 37° C., 1.5 hours; read-out: IC50 MMP13
T2 construct: made in house; host or cells: E. coli BL21 (DE3), pET11a
Text: To subclone C-terminal truncated form of procollagenase-3 (proMMP-13) cDNA (J.Biol.Chem., 269(24), 16766-16773 (1994)), two synthetic oligonucleotide primer (5′-[…]-3′ and 5′-[…]-3′: the former incorporates sequences for a unique NdeI site (underlined) including initial methionine, and the latter has sequences for a stop codon and BamHI site (underlined)) were used with human chondrocyte cDNA library (CLONTECH) in PCR. With these primers and Pfu DNA polymerase (STRATAGENE) in PCR, 767 bp fragment was generated, which encodes 84 amino acid prosequence and 164 amino acids of mature MMP-13. The fragment was digested with NdaI and BamHI, ligated into the NdeI and BamHI sites of pET11a (STRATAGENE), transformed in E.coli BL21 (DE3) and cultured. The crude cell extract was prepared as described in Biochemistry. The extract was dialyzed against 20 mM Tris-HCl(pH7.2)/5 mM CaCl2/0.02% NaN3 and applied to a SP-Sepharose HP column (1.6×10 cm, Amersham-Pharmacia Biotech), and elution was performed with 50 mL linear gradient of 0 to 0.3 M NaCl (partially purified proMMP-13 was eluted at 0.2 M approximately). The fraction was dialyzed against 20 mM Tris-HCl(pH7.9)/5 mM CaCl2,/200 mM (NH4)2SO4/0.02% NaN3 and applied to a Phenyl Sepharose HP column (1.6×5 cm, Amersham-Pharmacia Biotech), and elution was performed with 20 mL linear gradient of 0.2 to 0 M (NH4)2SO4 (pure proHMP-13 was eluted at 50 mM approximately). The fraction was concentrated by YM-5 ultrafiltration membrane and activated with 4-aminophenylmercuric acetate and active MMP-13 was separated from propeptide fragments by gel filtration chromatography as described in Biochemistry.
as §1, §2

| Compound | IC50 [1] | IC50 [2] |
| --- | --- | --- |
| CCC(C)C(C(=O)NO)N1C(=O)CSC1c1ccc(OC)c(F)c1 (stereo not shown) [Example 175] | 1140 nM | 112 nM |
| CC(C)CC(C(=O)NO)N1C(=O)C(CC(=O)NCc2ccco2)SC1c1ccc(Cl)cc1 (stereo not shown) [Example 218] | 422 nM | 56 nM |
| COc1ccc(C2SCC(=O)N2C(CCSC)C(=O)NO)cc1F (stereo not shown) [Example 71] | 9070 nM | 249 nM |
| O=C(NO)C(Cc1c[nH]c2ccccc12)N1C(=O)CSC1c1ccc(Cl)cc1 (stereo not shown) [Example 121] | 2550 nM | 128 nM |
| COCCNC(=O)CC1SC(c2ccc(Cl)cc2)N(C(Cc2ccc(OC(C)(C)C)cc2)C(=O)NO)C1=O (stereo not shown) [Example 316] | 442 nM | 26 nM |
| COc1ccc(C2SC(CC(=O)NCc3ccco3)C(=O)N2C(Cc2ccc(OC(C)(C)C)cc2)C(=O)NO)cc1 (stereo not shown) [Example 333] | 794 nM | 70 nM |
| CNC(=O)CC1SC(c2ccc(OC)cc2)N(C(Cc2ccc(OC(C)(C)C)cc2)C(=O)NO)C1=O (stereo not shown) [Example 324] | 733 nM | 63 nM |
| Cc1cc(NC(=O)CC2SC(c3ccc(Cl)cc3)N(C(Cc3ccc(OC(C)(C)C)cc3)C(=O)NO)C2=O)no1 (stereo not shown) [Example 255] | 1200 nM | 106 nM |
| CCCN(CCC)C(=O)CC1SC(c2ccc(Cl)cc2)N(C(CC(C)C)C(=O)NO)C1=O (stereo not shown) [Example 306] | 987 nM | 122 nM |
| CC(C)CC(C(=O)NO)N1C(=O)CSC1c1ccc(-c2cc(C(F)(F)F)nn2C)s1 (stereo not shown) [Example 88] | 3800 nM | 62 nM |
| CCN(CC)c1ccc(CC2Sc3ccccc3N(CC(=O)NO)C2=O)cc1 (stereo not shown) [Example 422] | > 10000 nM | 4810 nM |
| COc1ccc(CC2Sc3cc(C(=O)N[C@H](CO)CC(C)C)ccc3N(CC(=O)NO)C2=O)cc1 (stereo partly shown) [Example 865] | 53 nM | 4.9 nM |
| CCC(C)C(C(=O)NO)N1C(=O)CSC1c1ccc(SC)cc1 (stereo not shown) [Example 176] | 1060 nM | 100 nM |
| COC(C)(C)NC(=O)CC1SC(c2ccc(Cl)cc2)N(C(Cc2ccc(OC(C)(C)C)cc2)C(=O)NO)C1=O (stereo not shown) [Example 257] | 267 nM | 23 nM |
| C=CCNC(=O)CC1SC(c2ccc(Cl)cc2)N(C(CC(C)C)C(=O)NO)C1=O (stereo not shown) [Example 262] | 850 nM | 66 nM |
| O=C(CN1C(=O)C(Cc2cccnc2)Sc2ccccc21)NO (stereo not shown) [Example 423] | 5130 nM | 1220 nM |
| O=C(CN1C(=O)C(=Cc2ccccn2)Sc2ccccc21)NO [Example 378] | > 50000 nM | 16000 nM |
| COc1ccc(C2SC(CC(=O)Nc3ccccn3)C(=O)N2C(Cc2ccc(OC(C)(C)C)cc2)C(=O)NO)cc1 (stereo not shown) [Example 361] | 446 nM | 53 nM |
| O=C(CN1C(=O)C(Cc2ccc(Oc3ccccc3)cc2)Sc2ccccc21)NO (stereo not shown) [Example 409] | 279 nM | 12 nM |
| COc1ccc(CC2Sc3ccccc3N([C@H](C)C(=O)NO)C2=O)cc1 (stereo partly shown) [Example 438] | 1660 nM | 375 nM |
| COc1ccc(C2SCC(=O)N2C(Cc2ccc(OC(C)(C)C)cc2)C(=O)NO)cc1 (stereo not shown) [Example 109] | 599 nM | 43 nM |
| COc1ccc(NC(=O)CC2Sc3ccccc3N(CC(=O)NO)C2=O)cc1 (stereo not shown) [Example 441, 2H-2-[N′-(4-Methoxyphenyl)-carbamoylmethyl]-1,4-benzothiazin-3(4H)-one-4-yl-acetic Acid N-Hydroxylamide] | 2960 nM | 118 nM |

Now from value to molecule:

| IC50 [1] | IC50 [2] | Compound |
| --- | --- | --- |
| 375 nM | 38 nM | O=C(CN1C(=O)C(Cc2ccc(Br)cc2)Sc2ccccc21)NO (stereo not shown) [Example 426] |
| 1200 nM | 35 nM | COc1ccc(/C=C2\Sc3cc(Cl)ccc3N(CC(=O)NO)C2=O)cc1 [Example 370] |
| 1270 nM | 64 nM | CCCC(C(=O)NO)N1C(=O)CSC1c1ccc(Oc2ccccc2)cc1 (stereo not shown) [Example 143] |
| 274 nM | 35 nM | COc1ccc(C2SC(CC(=O)NC3CCCCC3)C(=O)N2C(CC(C)C)C(=O)NO)cc1 (stereo not shown) [Example 239] |
| 514 nM | 63 nM | O=C(CN1C(=O)C(Cc2ccc(-c3ccccc3)cc2)Sc2ccccc21)NO (stereo not shown) [Example 419] |
| 6720 nM | 231 nM | COc1ccc(C2SCC(=O)N2C(COC(C)(C)C)C(=O)NO)cc1 (stereo not shown) [Example 105] |
| > 10000 nM | 759 nM | CCCCC#Cc1ccc(C2SCC(=O)N2C(CC(C)C)C(=O)NO)cc1 (stereo not shown) [Example 42] |
| 301 nM | 17 nM | CC(C)CC(C(=O)NO)N1C(=O)C(CC(=O)NCc2ccco2)[S+]([O-])C1c1ccc(Oc2ccc(Cl)cc2)cc1 (stereo not shown) [Example 739] |
| 1890 nM | 119 nM | CCCCC(C(=O)NO)N1C(=O)CSC1c1cc2ccccc2o1 (stereo not shown) [Example 195] |
| 880 nM | 36 nM | COc1ccc(/C=C2\Sc3ccc(C(F)(F)F)cc3N(CC(=O)NO)C2=O)cc1 [Example 371] |
| 614 nM | 37 nM | CCCNC(=O)CC1SC(c2ccc(Cl)cc2)N(C(Cc2ccc(OC(C)(C)C)cc2)C(=O)NO)C1=O (stereo not shown) [Example 283] |
| 155 nM | 11 nM | COCCCNC(=O)CC1SC(c2ccc(OC)cc2)N(C(Cc2ccc(OC(C)(C)C)cc2)C(=O)NO)C1=O (stereo not shown) [Example 329] |
| 31600 nM | 5300 nM | COc1cccc(C2SC(CC(=O)NO)C(=O)N2CC(Cl)CCCCl)c1[N+](=O)[O-] (stereo not shown) [Example 10] |
| 270 nM | 19 nM | COc1ccc(C2SC(CC(=O)NC(C)C)C(=O)N2C(Cc2ccccc2)C(=O)NO)cc1 (stereo not shown) [Example 479] |
| 1140 nM | 56 nM | CC(C)CC(C(=O)NO)N1C(=O)CSC1c1ccc(Cl)cc1 (stereo not shown) [Example 130] |
| 1000 nM | > 50000 nM | COc1cccc(C2SC(CC(=O)NO)C(=O)N2CCc2ccc(O)cc2)c1OC (stereo not shown) [Example 19] |
| 23000 nM | 1600 nM | O=C(CN1C(=O)/C(=C/c2ccccc2)Sc2ccccc21)NO [Example 388] |
| 938 nM | 671 nM | COc1ccc(CC2Sc3ccccc3N([C@H](C(=O)NO)C(C)C)C2=O)cc1 (stereo partly shown) [Example 436] |
| 894 nM | 134 nM | CC(C)CC(C(=O)NO)N1C(=O)CSC1c1ccc(-c2ccc(Cl)cc2)o1 (stereo not shown) [Example 46] |
| 5620 nM | 3600 nM | COc1ccc(CC2Sc3cccc(Cl)c3N(CC(=O)NO)C2=O)cc1 (stereo not shown) [Example 429] |
| > 50000 nM | 13200 nM | COc1ccc(C2SC(CC(=O)NO)C(=O)N2CCCc2ccccc2)cc1 (stereo not shown) [Example 13] |
| 238 nM | 13 nM | COc1ccc(CC2Sc3cc(C)c(C)cc3N(CC(=O)NO)C2=O)cc1 (stereo not shown) [Example 431] |
| 745 nM | 66 nM | COc1ccc(C2SC(CC(=O)NCCCN3CCCCC3C)C(=O)N2C(Cc2ccc(OC(C)(C)C)cc2)C(=O)NO)cc1 (stereo not shown) [Example 330] |
| > 50000 nM | 29000 nM | O=C(CN1C(=O)/C(=C/c2ccc(-c3ccc(Br)cc3)o2)Sc2ccccc21)NO [Example 389] |
| 459 nM | 12 nM | COCCNC(=O)CC1C(=O)N(C(CC(C)C)C(=O)NO)C(c2ccc(Oc3ccc(Cl)cc3)cc2)[S+]1[O-] (stereo not shown) [Example 740] |
| 895 nM | 108 nM | COc1ccc(C2SC(CC(=O)NCc3cccnc3)C(=O)N2C(Cc2ccccc2)C(=O)NO)cc1 (stereo not shown) [Example 211] |
| 3230 nM | 257 nM | O=C(CN1C(=O)C(Cc2ccc(O)cc2)Sc2ccccc21)NO (stereo not shown) [Example 406, 2H-2-(4-Hydroxybenzyl)-1,4-benzothiazin-3(4H)-one-4-yl-acetic Acid N-Hydroxyamide] |
| 433 nM | 24 nM | Cc1ccc(CC2Sc3ccccc3N(CC(=O)NO)C2=O)cc1 (stereo not shown) [Example 407, 2H-2-(4-Methylbenzyl)-1,4-benzothiazin-3(4H)-one-4-yl-acetic acid N-hydroxyamide] |
